Tests used:
Format in all cases: biochemical
[1] = biological target: T1, TrkC (Homo sapiens, UniProt Q16288); assay: HTRF KinEASE kinase assay, TrkC enzyme; conditions: recombinant Human TRK enzyme, NTRK3 10 nM, read-out: TrkC Enz (nM), Trk inhibition activity expressed as IC50
T1 construct: purchased Invitrogen
Description: (§1) To determine the IC50 of small molecule compounds for the Human TRK receptors, HTRF® KinEASE™ kinase kits from Cisbio were used. Assays were carried out in low volume, black 384-well plates.
(§2) Recombinant Human TRK enzymes (Invitrogen) were incubated in the presence or absence of the compound (11-point dose response with FAC as 10 μM) for 30 minutes at 23° C. Kinase reaction was started by addition of ATP to a mixture containing the enzyme (NTRK1-4 nM, NTRK2-1 nM, NTRK3-10 nM) and substrate (1 μM). Kinase reaction was allowed to carry on for 10 to 45 minutes at 23° C. after which it was stopped by addition of the detection mix (supplied by vendor) containing EDTA, TK-Ab-labelled with Eu^3+-cryptate (1:200 dilutions) and Streptavidin-XL665 (250 nM). Assay plates were incubated in this detection mix for 60 minutes at 23° C. The resulting TR-FRET signal, calculated as the fluorescence ratio at 665/620 nm, was read on an Envision and was proportional to the level of phosphorylation of the peptide in the presence or absence of the compound. The uniformity of the plates were assured with Z′ value [1-{3*(SDHPE+SDZPE)/(ZPE-HPE)}]. The percent (%) effect i.e. Inhibition of compound was calculated in comparison to the signal in the positive (HPE) and negative control (ZPE) wells within each assay plate. The endpoint value % Inhibition for the Standard compound was evaluated in each experiment as a quality control measure. IC50 was determined by plotting compound inhibition at respective dose in Graphpad prism5 using four parameter logistic curve fit.

[2] = biological target: T2, TrkA (Homo sapiens, UniProt P04629); assay: HTRF KinEASE kinase assay, TrkA enzyme; conditions: recombinant Human TRK enzyme, NTRK1 4 nM, read-out: TrkA Enz (nM), Trk inhibition activity expressed as IC50
T2 construct: purchased Invitrogen
Description: as §1, §2

[3] = biological target: T3, TrkB (Homo sapiens, UniProt Q16620); assay: HTRF KinEASE kinase assay, TrkB enzyme; conditions: recombinant Human TRK enzyme, NTRK2 1 nM, read-out: TrkB Enz (nM), Trk inhibition activity expressed as IC50
T3 construct: purchased Invitrogen
Description: as §1, §2

T2 sequence (P04629 33-796): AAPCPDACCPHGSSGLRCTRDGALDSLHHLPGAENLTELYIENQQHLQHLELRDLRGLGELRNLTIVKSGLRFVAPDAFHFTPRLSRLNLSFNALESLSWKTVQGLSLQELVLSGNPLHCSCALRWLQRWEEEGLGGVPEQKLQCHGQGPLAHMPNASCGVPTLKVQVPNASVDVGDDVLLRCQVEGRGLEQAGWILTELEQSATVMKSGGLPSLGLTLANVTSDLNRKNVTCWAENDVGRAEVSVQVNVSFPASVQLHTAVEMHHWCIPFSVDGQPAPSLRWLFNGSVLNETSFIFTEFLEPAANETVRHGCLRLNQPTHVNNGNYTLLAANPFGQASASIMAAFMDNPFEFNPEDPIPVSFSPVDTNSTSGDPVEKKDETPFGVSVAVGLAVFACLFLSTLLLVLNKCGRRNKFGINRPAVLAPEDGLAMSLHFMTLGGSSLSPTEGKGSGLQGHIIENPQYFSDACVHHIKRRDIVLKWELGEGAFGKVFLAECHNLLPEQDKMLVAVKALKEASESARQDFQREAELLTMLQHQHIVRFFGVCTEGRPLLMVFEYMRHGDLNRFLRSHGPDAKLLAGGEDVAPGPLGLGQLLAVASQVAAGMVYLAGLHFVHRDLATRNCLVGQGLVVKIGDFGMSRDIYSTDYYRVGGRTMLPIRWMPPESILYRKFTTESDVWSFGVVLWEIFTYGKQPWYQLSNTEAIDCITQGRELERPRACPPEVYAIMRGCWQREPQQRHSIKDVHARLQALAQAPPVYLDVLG
T3 sequence (Q16620 32-822): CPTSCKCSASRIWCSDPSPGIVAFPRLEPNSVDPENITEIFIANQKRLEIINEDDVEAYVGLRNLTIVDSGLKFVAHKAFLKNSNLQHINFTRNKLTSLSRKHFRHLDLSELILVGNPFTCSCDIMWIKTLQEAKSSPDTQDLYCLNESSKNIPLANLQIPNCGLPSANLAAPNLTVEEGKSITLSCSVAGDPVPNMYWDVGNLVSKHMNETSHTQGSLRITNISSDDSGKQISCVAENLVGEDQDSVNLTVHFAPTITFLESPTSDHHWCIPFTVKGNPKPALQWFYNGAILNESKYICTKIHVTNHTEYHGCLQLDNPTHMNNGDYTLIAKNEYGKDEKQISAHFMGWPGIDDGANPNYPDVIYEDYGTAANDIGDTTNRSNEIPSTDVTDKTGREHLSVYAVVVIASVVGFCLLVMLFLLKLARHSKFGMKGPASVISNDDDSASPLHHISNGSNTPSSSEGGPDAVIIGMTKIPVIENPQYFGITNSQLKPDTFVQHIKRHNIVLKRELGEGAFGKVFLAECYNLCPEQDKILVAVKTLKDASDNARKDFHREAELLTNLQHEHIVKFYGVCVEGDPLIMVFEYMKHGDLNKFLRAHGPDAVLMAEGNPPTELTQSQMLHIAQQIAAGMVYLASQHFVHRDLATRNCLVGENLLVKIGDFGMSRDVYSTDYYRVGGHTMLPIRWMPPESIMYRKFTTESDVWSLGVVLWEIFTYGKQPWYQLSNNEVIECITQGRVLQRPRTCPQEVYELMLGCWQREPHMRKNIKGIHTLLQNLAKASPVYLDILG
T1 sequence (Q16288 32-839): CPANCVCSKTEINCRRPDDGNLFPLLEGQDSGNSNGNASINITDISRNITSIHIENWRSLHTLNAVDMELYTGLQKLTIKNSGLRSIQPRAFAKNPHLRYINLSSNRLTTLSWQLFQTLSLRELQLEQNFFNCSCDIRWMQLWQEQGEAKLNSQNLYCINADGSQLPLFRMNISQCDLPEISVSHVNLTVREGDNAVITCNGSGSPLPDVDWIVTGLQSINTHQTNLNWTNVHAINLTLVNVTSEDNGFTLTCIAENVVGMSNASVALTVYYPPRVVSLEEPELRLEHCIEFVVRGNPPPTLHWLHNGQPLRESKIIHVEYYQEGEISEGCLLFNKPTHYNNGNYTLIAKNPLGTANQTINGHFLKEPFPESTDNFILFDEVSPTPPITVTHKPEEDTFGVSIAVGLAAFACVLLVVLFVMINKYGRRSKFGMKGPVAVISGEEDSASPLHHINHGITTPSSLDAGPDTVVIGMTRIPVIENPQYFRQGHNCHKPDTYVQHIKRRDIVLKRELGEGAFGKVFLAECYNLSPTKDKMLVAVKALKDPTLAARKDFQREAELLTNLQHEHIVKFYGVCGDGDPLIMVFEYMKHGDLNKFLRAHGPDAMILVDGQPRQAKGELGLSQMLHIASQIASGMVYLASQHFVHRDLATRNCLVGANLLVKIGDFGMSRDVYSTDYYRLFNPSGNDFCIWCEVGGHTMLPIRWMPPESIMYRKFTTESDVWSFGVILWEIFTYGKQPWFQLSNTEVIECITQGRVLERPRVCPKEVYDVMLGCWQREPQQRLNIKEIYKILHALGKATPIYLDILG

Compound	IC50 [1] [nM]	IC50 [2] [nM]	IC50 [3] [nM]
CSc1ccc(F)cc1[C@H]1CCCN1c1ccc2ncc(/C(=N/C#N)N[C@@H]3CCCOC3)n2n1 [Example 1, (Z)-N′-cyano-6-[(2R)-2-[5-fluoro-2-(methylsulfanyl)phenyl]pyrrolidin-1-yl]-N-[(3R)-oxan-3-yl]imidazo[1,2-b]pyridazine-3-carboximidamide]	1.6	0.95	0.88
CSc1ccc(F)cc1[C@H]1C[C@H](F)CN1c1ccc2ncc(/C(=N/C#N)NC3CCCCC3)n2n1 [Example 6, (Z)-N′-cyano-N-cyclohexyl-6-[(2R,4S)-4-fluoro-2-[5-fluoro-2-(methylsulfanyl)phenyl]pyrrolidin-1-yl]imidazo[1,2-b]pyridazine-3-carboximidamide]	1.91	1.52	0.7
CCCCN/C(=N\C#N)c1cnc2ccc(N3C[C@@H](F)C[C@@H]3c3cc(F)ccc3SC)nn12 [Example 5, (Z)-N-butyl-N′-cyano-6-[(2R,4S)-4-fluoro-2-[5-fluoro-2-(methylsulfanyl)phenyl]pyrrolidin-1-yl]imidazo[1,2-b]pyridazine-3-carboximidamide]	1.61	1.1	0.41
CSc1ccc(F)cc1[C@H]1CCCN1c1ccc2ncc(/C(=N/C#N)NCc3cccc(O)c3)n2n1 [Example 7, (Z)-N′-cyano-6-[(2R)-2-[5-fluoro-2-(methylsulfanyl)phenyl]pyrrolidin-1-yl]-N-[(3-hydroxyphenyl)methyl]imidazo[1,2-b]pyridazine-3-carboximidamide]	3.16	1.44	1.55
CSc1ccc(F)cc1[C@H]1CCCN1c1ccc2ncc(/C(=N/C#N)N[C@H]3CCCOC3)n2n1 [Example 2, (Z)-N′-cyano-6-[(2R)-2-[5-fluoro-2-(methylsulfanyl)phenyl]pyrrolidin-1-yl]-N-[(3S)-oxan-3-yl]imidazo[1,2-b]pyridazine-3-carboximidamide]	1.78	1.04	0.83

The next compounds have a lower IC50 [1] than those just listed; values first:

IC50 [1] [nM]	IC50 [2] [nM]	IC50 [3] [nM]	Compound
1	0.97	0.23	CCN/C(=N\C#N)c1cnc2ccc(N3C[C@@H](F)C[C@@H]3c3cc(F)ccc3SC)nn12 [Example 4, (Z)-N′-cyano-N-ethyl-6-[(2R,4S)-4-fluoro-2-[5-fluoro-2-(methylsulfanyl)phenyl]pyrrolidin-1-yl]imidazo[1,2-b]pyridazine-3-carboximidamide]
1.53	1.17	0.37	CCN/C(=N\C#N)c1cnc2ccc(N3C[C@@H](F)C[C@@H]3c3cc(F)cc(SC)c3)nn12 [Example 3, (Z)-N′-cyano-N-ethyl-6-[(2R,4S)-4-fluoro-2-[5-fluoro-3-(methylsulfanyl)phenyl]pyrrolidin-1-yl]imidazo[1,2-b]pyridazine-3-carboximidamide]

From US20210277008A1, “IMIDAZO[1,2-B]PYRIDAZINE DERIVATIVES AS TRK INHIBITORS” (BenevolentAI Bio Limited, priority 2018, published 2021)
